Patent US20080207522A1, “Antimicrobial Peptides” (priority 2004, published 2008)
Ends that are not written are not given here.

Legend:
[1] = tested on: Staphylococcus aureus ATCC25923; settings: ATCC25923
Procedure: (§1) Minimal inhibitory concentration (MIC) determination. The MICs of the peptides were measured using a modified broth microdilution method in Mueller Hinton (MH) medium. Wu et al., J. Biol. Chem. 274: 29-35, 1999. Briefly, the peptides were dissolved and stored in glass vials. The assay was performed in sterile 96-well polypropylene microtitre plates were used. Serial dilutions of the peptides to be assayed were performed in 0.01% acetic acid (Fisher) containing 0.2% bovine serum albumin (Boehringer Mannheim GmbH) at 10× the desired final concentration. Ten microlitres of the 10× peptides were added to each well of a 96-well polypropylene plate containing 90 μl of MH media per well. Bacteria were added to the plate from an overnight culture at 2-7×10^5 colony forming units/ml and incubated over night at 37° C. The MIC was taken as the concentration at which no growth was observed.
(§2) Strains. For the killing assay a mini-Tn5-lux mutant in Pseudomonas aeruginosa H103 was used. The strain is called H1001 and contains a fliC::luxCDABE transcriptional fusion resulting in constitutive expression of luciferase. The bacterial strains used for the antimicrobial activity assays included Escherichia coli UB1005 (F-, nalA37, metB1), a wild-type Salmonella enterica ssp. Typhimurium (S. Typhimurium), wild-type Pseudomonas aeruginosa PAO1 strain H103, Enterococcus faecalis ATCC29212, Staphylococcus aureus ATCC25923, and a clinical isolate of Staphylococcus epidermidis obtained from Dr. D. Speert (Department of Medicine, University of British Columbia). Antifungal activity was tested using a lab isolate of Candida albicans obtained from Dr. B. Dill (Department of Microbiology and Immunology, University of British Columbia).
(§3) In addition, the parent peptide Bac2A was included in these studies as a standard. The minimal inhibitory concentrations (MIC) were determined for the important medical pathogens Pseudomonas aeruginosa, Escherichia coli, Salmonella typhimurium, Staphylococcus aureus, Staphylococcus epidermidis, Enterococcus faecaelis, and the yeast Candida albicans in Mueller-Hinton media.

[2] = tested on: Staphylococcus epidermidis
Procedure: as §1, §2, §3

[3] = tested on: Salmonella enterica ssp. Typhimurium; settings: ssp. Typhimurium
Procedure: as §1, §2, §3

Candida albicans = tested on: Candida albicans
Procedure: as §1, §2, §3

[4] = tested on: Pseudomonas aeruginosa PAO1 strain H103; settings: PAO1
Procedure: as §1, §2, §3

[5] = tested on: Enterococcus faecalis ATCC29212; settings: ATCC29212
Procedure: as §1, §2, §3

[6] = tested on: Pseudomonas aeruginosa strain H1001 fliC::luxCDABE; experiment: Luminescence-based assay for the non-cleaved (bound) peptides on cellulose membranes; format: cell-based; settings: for Luminescence at the given time in minutes: 0 / Luminescence at the given time in minutes: 20 / Luminescence at the given time in minutes: 40 / Luminescence at the given time in minutes: 60 / Luminescence at the given time in minutes: 80 / Luminescence at the given time in minutes: 100 / Luminescence at the given time in minutes: 120 / Luminescence at the given time in minutes: 180 / Luminescence at the given time in minutes: 240: cellulose-bound peptide; for Luminescence at the given time in minutes: 0: 0 min; for Luminescence at the given time in minutes: 20: 20 min; for Luminescence at the given time in minutes: 40: 40 min; for Luminescence at the given time in minutes: 60: 60 min; for Luminescence at the given time in minutes: 80: 80 min; for Luminescence at the given time in minutes: 100: 100 min; for Luminescence at the given time in minutes: 120: 120 min; for Luminescence at the given time in minutes: 180: 180 min; for Luminescence at the given time in minutes: 240: 240 min; for Activity Class bound: uncleaved cellulose-bound peptides
Method in brief: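 Peptides remained bound to cellulose spots, which were ethanol-washed and equilibrated in 100 mM Tris pH 7.3. Constitutively lux-expressing P. aeruginosa (OD600 0.35 culture diluted 1:25) added in 10 mM Tris-HCl pH 7.3, 20 mM glucose at 37° C. Luminescence (RLU) followed over 14 time points; peptides binned into six activity classes.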

[7] = tested on: Pseudomonas aeruginosa strain H1001; experiment: Assay for the cleaved (free, soluble) peptides from cellulose support, luminescence killing assay; format: cell-based; set-up: key: 1: Peptides showing stronger killing than Bac2A at a 4 to 8-fold higher dilution; Peptides showing stronger killing compared to that of Bac2A at a 4-fold higher dilution; 3: Peptides similar to Bac2A; 4: Peptides similar to Bac2A at the highest concentration but demonstrating weaker killing at a 2-fold dilution; 5: Peptides giving very weak or no killing at a 2-fold dilution; 6: Peptides with weak killing activity at the highest concentration; settings: free (cleaved) peptides, killing relative to Bac2A
Method in brief: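 Cellulose-synthesized peptides (amidated C-terminus, two β-alanines) cleaved by ammonia, released from punched spots 30 min at 37 °C, then serially diluted. P. aeruginosa H1001 (constitutive fliC::luxCDABE) overnight culture diluted 1:500 in LB or 100 mM Tris pH 7.3/20 mM glucose. Killing followed as time-dependent luminescence loss at 37 °C.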

Substance	MIC S. aureus [1] [µg/mL]	MIC S. epi. [2] [µg/mL]	MIC S. Typhim. [3] [µg/mL]	MIC C. albicans (Candida albicans) [µg/mL]	MIC P. aerug [4] [µg/mL]	MIC E. faecalis [5] [µg/mL]	Luminescence at the given time in minutes: 0 [6] [RLU]	Luminescence at the given time in minutes: 20 [6] [RLU]	Luminescence at the given time in minutes: 40 [6] [RLU]	Luminescence at the given time in minutes: 60 [6] [RLU]	Luminescence at the given time in minutes: 80 [6] [RLU]	Luminescence at the given time in minutes: 100 [6] [RLU]	Luminescence at the given time in minutes: 120 [6] [RLU]	Luminescence at the given time in minutes: 180 [6] [RLU]	Luminescence at the given time in minutes: 240 [6] [RLU]	Activity Class bound [6]	Activity Class Soluble [7]	MIC P. aeruginosa [4] [µg/mL]
RLARIVVIRVAG-NH2 (C-terminus assumed) [Bac415]	63	31	63	63	63	31	–	–	–	–	–	–	–	–	–	–	–	–
RLARQVVIRVAR-NH2 (C-terminus assumed) [Bac289]	8	2	8	8	16	4	–	–	–	–	–	–	–	–	–	–	–	–
RLARRVVIRVAR-NH2 (C-terminus assumed) [Bac290]	63	16	31	125	63	125	–	–	–	–	–	–	–	–	–	–	–	–
RLRRIVVIRVAR-NH2 (C-terminus assumed) [Bac252]	8	2	8	16	8	8	–	–	–	–	–	–	–	–	–	–	–	–
RLRRIVVIRVRR-NH2 (C-terminus assumed) [Bac433]	8	2	8	31	8	4	–	–	–	–	–	–	–	–	–	–	–	–
RLWRIVVIRVAR-NH2 (C-terminus assumed) [Bac256]	2	0.5	8	8	8	2	–	–	–	–	–	–	–	–	–	–	–	–
RRARIVVIRVAR-NH2 (C-terminus assumed) [Bac233]	16	2	8	8	8	16	–	–	–	–	–	–	–	–	–	–	–	–
RVLIVIRARRVA-NH2 (C-terminus assumed) [Bac043]	23	–	–	–	–	–	5254	6385	3722	1189	313	159	67	84	52	3 (Peptides similar to Bac2A resulting in lux values of less than 500 after 240 min.)	1	40
VRIRARRVILVA-NH2 (C-terminus assumed) [Bac006]	28	–	–	–	–	–	3878	6829	4619	2393	867	469	277	286	306	3 (Peptides similar to Bac2A resulting in lux values of less than 500 after 240 min.)	1	28
VVIRAAIRRVRL [Bac038]	–	–	–	–	–	–	5024	7158	5307	4676	4112	3323	2739	2466	2576	5 (Peptides reducing luminescence (lux) values to between 1500 to 3000 after 240 min.)	5	–
VVRALRRIIARV [Bac048]	–	–	–	–	–	–	5001	6505	5163	4406	3824	3470	3423	3268	3694	6 (Peptides having residual luminescence (lux) values greater than 3000 after 240 min.)	4	–
